17 compounds from paper PMC11542607 (RSC Advances, 2024) can be followed below.

The test system of data set [1] is HeLa (cervical epithelioid carcinoma). The experiment in a line: MTT cytotoxicity assay, HeLa. It is filed as cell-based. Particulars: Homo sapiens, read-out: IC50 HeLa. For orientation: Formazan colour is commonly taken as a measure of viable cells.
Data set [2] concerns WI-38 normal fibroblast cell line. The experiment in a line: Cytotoxicity towards normal human cells. It is filed as cell-based. Particulars: WI-38, read-out: IC50 WI-38.
Data set [3] concerns MCF-7 (breast cancer). The experiment in a line: MTT cytotoxicity assay, MCF-7. It is filed as cell-based. Particulars: Homo sapiens, MCF7, read-out: IC50 MCF-7.
Data set [4] relates to HCT116 (colorectal carcinoma). The experiment in a line: MTT cytotoxicity assay, HCT-116. It is filed as cell-based. Conditions: Homo sapiens, HCT-116, read-out: IC50 HCT-116.
Data set [5] addresses HER-2 (Homo sapiens, UniProt P04626). As to the kind of experiment: biochemical.
In data set [6] the target is TOP-II (Homo sapiens, UniProt P11388). As to the kind of experiment: TOP-II enzyme inhibition assay. It is filed as biochemical.
In data set [7] the target is EGFR (Homo sapiens, UniProt P00533). As to the kind of experiment: EGFR enzyme inhibition assay. It is filed as biochemical.
The target of data set [8] is T1, aromatase (ARO) (Homo sapiens, UniProt P11511).
T1 sequence (P11511 1-503): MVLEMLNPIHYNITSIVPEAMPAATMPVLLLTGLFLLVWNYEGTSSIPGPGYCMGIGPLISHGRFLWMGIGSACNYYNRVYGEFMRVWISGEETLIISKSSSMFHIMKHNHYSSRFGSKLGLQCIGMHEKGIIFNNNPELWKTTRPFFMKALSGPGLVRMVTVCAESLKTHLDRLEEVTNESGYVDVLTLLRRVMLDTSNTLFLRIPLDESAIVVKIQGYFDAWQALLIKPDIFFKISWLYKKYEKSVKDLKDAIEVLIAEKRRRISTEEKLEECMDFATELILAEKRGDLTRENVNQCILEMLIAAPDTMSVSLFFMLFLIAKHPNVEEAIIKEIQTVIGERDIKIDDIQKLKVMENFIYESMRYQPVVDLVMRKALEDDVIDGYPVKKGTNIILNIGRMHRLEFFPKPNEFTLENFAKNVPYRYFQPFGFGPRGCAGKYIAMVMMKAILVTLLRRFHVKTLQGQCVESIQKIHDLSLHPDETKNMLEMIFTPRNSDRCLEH
The experiment in a line: Aromatase enzyme inhibition assay. It is filed as biochemical.

The test system of data set [9] is DMBA-induced breast cancer. The experiment in a line: In vivo DMBA-induced breast cancer model. Also on record: species or system mice. Conditions: day 20; for Final tumor volume: untreated DMBA group approximately 2.4 mm^3.
The test system of data set [10] is caspase-3. The experiment in a line: Caspase-3 immunostaining of mammary tissue in DMBA model. It is filed as in vivo, mice. Conditions: for caspase-3 positive cells: immunostaining, mean ± standard error (n = 5), control 4.5 ± 0.2, DMBA 0.5 ± 0.1.
The test system of data set [11] is MCF-7 cells. As to the kind of experiment: Flow cytometry cell cycle analysis. It is filed as cell-based, human. On the technique in general: In flow cytometry, cells or beads pass a laser one at a time.
Data set [12] can be described thus: Body weight in DMBA-induced breast cancer model. It is filed as in vivo. Conditions: DMBA model mice; for Body weight at day 20: control 28.91 g, DMBA 35.2 g; for Body weight at start: start of 20 days period, control 20.51 g, DMBA 18.8 g.

Sequence of TOP-II (P11388 whole entry): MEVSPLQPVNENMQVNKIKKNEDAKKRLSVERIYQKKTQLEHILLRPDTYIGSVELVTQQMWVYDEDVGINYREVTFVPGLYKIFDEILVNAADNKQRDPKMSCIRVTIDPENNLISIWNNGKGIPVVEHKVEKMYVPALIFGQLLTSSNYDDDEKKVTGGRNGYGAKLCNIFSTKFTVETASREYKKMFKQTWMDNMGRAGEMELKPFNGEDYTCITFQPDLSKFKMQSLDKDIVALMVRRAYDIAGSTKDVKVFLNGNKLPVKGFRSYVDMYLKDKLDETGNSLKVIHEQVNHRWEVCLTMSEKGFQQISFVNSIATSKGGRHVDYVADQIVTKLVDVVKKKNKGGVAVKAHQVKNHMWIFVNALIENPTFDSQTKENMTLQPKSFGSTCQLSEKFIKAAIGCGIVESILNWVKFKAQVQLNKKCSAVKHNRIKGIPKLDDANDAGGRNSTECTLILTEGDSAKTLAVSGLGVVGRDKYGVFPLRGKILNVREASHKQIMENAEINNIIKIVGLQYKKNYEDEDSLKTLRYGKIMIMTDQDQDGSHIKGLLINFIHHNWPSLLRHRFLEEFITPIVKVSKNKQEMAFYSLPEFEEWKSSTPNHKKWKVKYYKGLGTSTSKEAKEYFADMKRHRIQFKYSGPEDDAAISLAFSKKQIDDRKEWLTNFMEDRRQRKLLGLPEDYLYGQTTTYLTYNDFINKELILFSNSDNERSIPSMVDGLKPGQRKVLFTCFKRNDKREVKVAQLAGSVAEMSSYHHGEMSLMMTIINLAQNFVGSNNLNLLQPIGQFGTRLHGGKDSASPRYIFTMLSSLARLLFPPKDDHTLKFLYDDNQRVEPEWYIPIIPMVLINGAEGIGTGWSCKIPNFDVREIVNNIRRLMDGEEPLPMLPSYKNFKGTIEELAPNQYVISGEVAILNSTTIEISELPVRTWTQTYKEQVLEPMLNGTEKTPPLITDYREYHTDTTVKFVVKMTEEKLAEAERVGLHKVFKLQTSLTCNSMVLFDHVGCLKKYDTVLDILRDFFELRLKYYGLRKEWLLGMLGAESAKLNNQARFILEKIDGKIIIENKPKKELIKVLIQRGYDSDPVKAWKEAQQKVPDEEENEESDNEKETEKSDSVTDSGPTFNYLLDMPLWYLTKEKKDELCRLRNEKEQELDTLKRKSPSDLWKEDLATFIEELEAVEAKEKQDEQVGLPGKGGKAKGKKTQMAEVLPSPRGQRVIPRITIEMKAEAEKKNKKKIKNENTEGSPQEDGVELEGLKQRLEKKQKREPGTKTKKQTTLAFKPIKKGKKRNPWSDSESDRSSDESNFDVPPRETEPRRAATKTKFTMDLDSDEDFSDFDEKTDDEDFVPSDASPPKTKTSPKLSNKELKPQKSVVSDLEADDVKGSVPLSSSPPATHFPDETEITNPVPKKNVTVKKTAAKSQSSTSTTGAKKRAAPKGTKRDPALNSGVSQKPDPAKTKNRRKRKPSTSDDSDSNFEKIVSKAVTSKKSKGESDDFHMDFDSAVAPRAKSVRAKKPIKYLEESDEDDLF
Sequence of EGFR (P00533 25-1210): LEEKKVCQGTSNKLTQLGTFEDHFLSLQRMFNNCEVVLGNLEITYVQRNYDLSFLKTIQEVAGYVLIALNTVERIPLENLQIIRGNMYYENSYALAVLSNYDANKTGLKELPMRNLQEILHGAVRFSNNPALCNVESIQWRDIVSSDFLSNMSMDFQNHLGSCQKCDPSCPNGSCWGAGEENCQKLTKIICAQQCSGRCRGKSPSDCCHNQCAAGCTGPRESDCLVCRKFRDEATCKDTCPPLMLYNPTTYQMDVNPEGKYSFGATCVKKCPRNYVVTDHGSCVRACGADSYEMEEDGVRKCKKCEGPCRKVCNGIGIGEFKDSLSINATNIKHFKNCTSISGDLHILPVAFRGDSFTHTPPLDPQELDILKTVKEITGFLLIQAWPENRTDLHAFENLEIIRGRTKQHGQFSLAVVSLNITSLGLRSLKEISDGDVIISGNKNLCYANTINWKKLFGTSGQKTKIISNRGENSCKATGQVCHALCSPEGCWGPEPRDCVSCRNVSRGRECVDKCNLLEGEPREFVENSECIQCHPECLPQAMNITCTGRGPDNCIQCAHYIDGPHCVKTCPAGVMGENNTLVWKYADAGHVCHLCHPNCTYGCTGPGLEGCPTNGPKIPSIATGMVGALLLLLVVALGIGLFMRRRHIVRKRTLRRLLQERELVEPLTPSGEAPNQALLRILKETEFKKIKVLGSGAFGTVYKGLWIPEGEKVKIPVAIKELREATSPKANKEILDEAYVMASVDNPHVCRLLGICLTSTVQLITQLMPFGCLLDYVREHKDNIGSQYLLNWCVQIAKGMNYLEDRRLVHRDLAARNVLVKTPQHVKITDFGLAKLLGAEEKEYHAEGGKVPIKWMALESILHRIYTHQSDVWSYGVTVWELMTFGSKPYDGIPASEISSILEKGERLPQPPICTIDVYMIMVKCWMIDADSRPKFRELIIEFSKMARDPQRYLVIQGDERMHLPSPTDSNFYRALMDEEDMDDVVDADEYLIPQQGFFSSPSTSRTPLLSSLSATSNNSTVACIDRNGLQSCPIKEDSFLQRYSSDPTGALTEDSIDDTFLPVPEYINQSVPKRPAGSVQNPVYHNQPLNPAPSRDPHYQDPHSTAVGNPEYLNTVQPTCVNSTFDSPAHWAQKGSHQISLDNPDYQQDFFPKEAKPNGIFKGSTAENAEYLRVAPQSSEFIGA
Sequence of HER-2 (P04626 23-1255): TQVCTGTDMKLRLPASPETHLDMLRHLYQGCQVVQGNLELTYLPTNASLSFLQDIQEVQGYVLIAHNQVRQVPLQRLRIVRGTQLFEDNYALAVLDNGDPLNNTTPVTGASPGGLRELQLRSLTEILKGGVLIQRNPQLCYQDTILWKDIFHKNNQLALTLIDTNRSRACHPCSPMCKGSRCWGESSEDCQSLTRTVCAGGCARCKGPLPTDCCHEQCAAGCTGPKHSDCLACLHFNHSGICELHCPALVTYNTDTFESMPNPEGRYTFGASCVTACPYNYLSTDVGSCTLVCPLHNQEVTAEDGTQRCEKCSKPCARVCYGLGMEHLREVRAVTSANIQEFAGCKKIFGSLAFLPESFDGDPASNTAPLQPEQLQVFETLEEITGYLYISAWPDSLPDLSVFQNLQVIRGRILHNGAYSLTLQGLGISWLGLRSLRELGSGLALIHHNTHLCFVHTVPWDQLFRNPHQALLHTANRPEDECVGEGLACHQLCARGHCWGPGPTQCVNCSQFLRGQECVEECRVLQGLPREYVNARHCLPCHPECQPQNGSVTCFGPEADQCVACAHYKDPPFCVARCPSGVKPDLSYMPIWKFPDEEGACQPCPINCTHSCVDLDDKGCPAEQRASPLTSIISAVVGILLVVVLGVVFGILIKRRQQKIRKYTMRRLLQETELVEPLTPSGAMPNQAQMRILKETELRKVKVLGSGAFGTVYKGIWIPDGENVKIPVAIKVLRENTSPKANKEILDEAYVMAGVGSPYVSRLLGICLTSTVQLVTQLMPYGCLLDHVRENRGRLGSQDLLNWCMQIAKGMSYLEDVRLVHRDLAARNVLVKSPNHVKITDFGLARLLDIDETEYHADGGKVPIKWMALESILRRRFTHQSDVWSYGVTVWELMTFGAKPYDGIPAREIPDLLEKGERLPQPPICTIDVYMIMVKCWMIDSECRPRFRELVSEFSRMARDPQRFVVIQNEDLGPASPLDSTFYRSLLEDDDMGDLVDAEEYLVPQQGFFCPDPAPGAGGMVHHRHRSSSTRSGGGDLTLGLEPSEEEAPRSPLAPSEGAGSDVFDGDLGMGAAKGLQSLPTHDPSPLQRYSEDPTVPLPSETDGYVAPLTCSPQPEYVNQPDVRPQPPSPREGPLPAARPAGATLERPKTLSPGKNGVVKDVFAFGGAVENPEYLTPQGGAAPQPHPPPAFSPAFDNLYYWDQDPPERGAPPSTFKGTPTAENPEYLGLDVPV

One may read the IC50 as the concentration at which inhibition is half-maximal. In the case of `Cc1cc(N2CCN(C(=O)CN3CCOCC3)CC2)n2ncnc2n1` [Compound 7e, 1-(4-(5-Methyl-[1,2,4]triazolo[1,5-a]pyrimidin-7-yl)piperazin-1-yl)-2-morpholinoethanone], the IC50 in data set [1] came to 78.5 ± 4.2 µM; in data set [2], 26.3 ± 1.9 µM; in data set [3] it was 84.7 ± 4.1 µM; in [4], 88.4 ± 4.5 µM.
In the case of `Cc1cc(Sc2nnc(NC(=O)Nc3ccccc3)s2)n2ncnc2n1` [Compound 9a, 1-(5-((5-Methyl-[1,2,4]triazolo[1,5-a]pyrimidin-7-yl)thio)-1,3,4-thiadiazol-2-yl)-3-phenylurea], the IC50 in data set [1] stood at 25.2 ± 2 µM; in [2], 48.4 ± 2.6 µM; in data set [3], 37.2 ± 2.3 µM; in data set [4] it was 44.4 ± 2.6 µM.
For `Cc1cc(Sc2nnc(NC(=O)Nc3ccc(Cl)cc3)s2)n2ncnc2n1` [Compound 9b, 1-(4-Chlorophenyl)-3-(5-((5-methyl-[1,2,4]triazolo[1,5-a]pyrimidin-7-yl)thio)-1,3,4-thiadiazol-2-yl)urea], the IC50 in [1] is 87.7 ± 4.4 µM; in data set [2], 64.7 ± 3.5 µM; in data set [3], over 100 µM; in data set [4] it was over 100 µM.
On to `Cc1ccc(NC(=O)Nc2nnc(Sc3cc(C)nc4ncnn34)s2)cc1` [Compound 9c, 1-(5-((5-Methyl-[1,2,4]triazolo[1,5-a]pyrimidin-7-yl)thio)-1,3,4-thiadiazol-2-yl)-3-(p-tolyl)urea], for which the IC50 is 51.9 ± 2.8 µM in data set [1], 18.1 ± 1.3 µM in data set [2], 46.1 ± 2.5 µM in [3] and 58.5 ± 3.3 µM in data set [4].
As to `COc1ccc(NC(=O)Nc2nnc(Sc3cc(C)nc4ncnn34)s2)cc1` [Compound 9d, 1-(4-Methoxyphenyl)-3-(5-((5-methyl-[1,2,4]triazolo[1,5-a]pyrimidin-7-yl)thio)-1,3,4-thiadiazol-2-yl)urea], the IC50 is 82.4 ± 4.1 µM in [1], over 100 µM in data set [2], 92.4 ± 4.4 µM in data set [3] and over 100 µM in data set [4].
Turning to `Cc1cc(Sc2nc(-c3ccc(Br)cc3)c(C#N)c(=O)[nH]2)n2ncnc2n1` [Compound 11a, 4-(4-Bromophenyl)-2-((5-methyl-[1,2,4]triazolo[1,5-a]pyrimidin-7-yl)thio)-6-oxo-1,6-dihydropyrimidine-5-carbonitrile], the concentration for half-maximal inhibition (IC50) in [1] was found to be 33.4 ± 2.3 µM; in [2], 75.9 ± 4.1 µM; in data set [3], 30.5 ± 2.1 µM; in data set [4] it was 41 ± 2.4 µM.
As to `Cc1cc(Sc2nc(-c3ccc(Cl)cc3)c(C#N)c(=O)[nH]2)n2ncnc2n1` [Compound 11b, 4-(4-Chlorophenyl)-2-((5-methyl-[1,2,4]triazolo[1,5-a]pyrimidin-7-yl)thio)-6-oxo-1,6-dihydropyrimidine-5-carbonitrile], the half-inhibitory concentration (IC50) worked out at 17.5 ± 1.4 µM in data set [1], 56.2 ± 3 µM in [2], 8.39 ± 0.6 µM in data set [3] and 12.6 ± 1 µM in data set [4].
The like results for `Cc1ccc(-c2nc(Sc3cc(C)nc4ncnn34)[nH]c(=O)c2C#N)cc1` [Compound 11c, 2-((5-Methyl-[1,2,4]triazolo[1,5-a]pyrimidin-7-yl)thio)-6-oxo-4-(p-tolyl)-1,6-dihydropyrimidine-5-carbonitrile] were, in that order, 19.2 ± 1.6 µM, 45 ± 2.4 µM, 9.15 ± 0.7 µM and 21.5 ± 1.5 µM.
Take `COc1ccc(-c2nc(Sc3cc(C)nc4ncnn34)[nH]c(=O)c2C#N)cc1` [Compound 11d, 4-(4-Methoxyphenyl)-2-((5-methyl-[1,2,4]triazolo[1,5-a]pyrimidin-7-yl)thio)-6-oxo-1,6-dihydropyrimidine-5-carbonitrile]: the concentration for half-maximal inhibition (IC50) was 63.4 ± 3.6 µM in data set [1], 71.2 ± 3.9 µM in data set [2], 34.6 ± 2.3 µM in data set [3] and 47.9 ± 2.7 µM in data set [4].
`COc1ccc(-c2nc(Sc3cc(C)nc4ncnn34)[nH]c(=O)c2C#N)cc1OC` [Compound 11e, 4-(3,4-Dimethoxyphenyl)-2-((5-methyl-[1,2,4]triazolo[1,5-a]pyrimidin-7-yl)thio)-6-oxo-1,6-dihydropyrimidine-5-carbonitrile]: the IC50 in data set [1] was 13.6 ± 1.1 µM; in [2], 60.3 ± 3.3 µM; in [5], 0.116 µM; in data set [6] it was 36.7 µM; in data set [3], 5.92 ± 0.3 µM; in data set [7], 0.246 µM. The IC50 in [8] amounted to 0.38 µM; in data set [4] it was 8.89 ± 0.8 µM.
As to `Cc1cc(Sc2nc(-c3cccc(Br)c3)c(C#N)c(=O)[nH]2)n2ncnc2n1` [Compound 11f, 4-(3-Bromophenyl)-2-((5-methyl-[1,2,4]triazolo[1,5-a]pyrimidin-7-yl)thio)-6-oxo-1,6-dihydropyrimidine-5-carbonitrile], the IC50 in data set [1] is 35.9 ± 2.2 µM; in data set [2], 77.3 ± 4.3 µM; in data set [3], 22.2 ± 1.6 µM; in data set [4], 31.2 ± 2.2 µM.
`Cc1cc(Sc2nnc(-c3ccccc3)o2)n2ncnc2n1` [Compound 13a, 2-((5-Methyl-[1,2,4]triazolo[1,5-a]pyrimidin-7-yl)thio)-5-phenyl-1,3,4-oxadiazole]: the IC50 in [1] worked out at 23.6 ± 1.9 µM; in data set [2], 91.4 ± 4.9 µM; in data set [3], 18.6 ± 1.3 µM; in data set [4], 15 ± 1.2 µM.
The like results for `Cc1ccc(-c2nnc(Sc3cc(C)nc4ncnn34)o2)cc1` [Compound 13b, 2-((5-Methyl-[1,2,4]triazolo[1,5-a]pyrimidin-7-yl)thio)-5-(p-tolyl)-1,3,4-oxadiazole] were, in that order, 39 ± 2.4 µM, 83.5 ± 4.5 µM, 27.8 ± 2 µM and 29.3 ± 2 µM.
In the case of `Cc1cc(Sc2nnc(-c3ccc([N+](=O)[O-])cc3)o2)n2ncnc2n1` [Compound 13c, 2-((5-Methyl-[1,2,4]triazolo[1,5-a]pyrimidin-7-yl)thio)-5-(4-nitrophenyl)-1,3,4-oxadiazole], the IC50 in data set [1] was 10.3 ± 0.9 µM; in data set [2], 38.6 ± 2.2 µM; in [5] it was 0.078 µM; in data set [6], 31.6 µM; in [3], 2.42 ± 0.1 µM; in [7], 0.087 µM. Besides, the 50% inhibitory concentration (IC50) in data set [8] turned out to be 0.156 µM; in data set [4] it was 6.1 ± 0.5 µM. In data set [9], the “Reduction in final tumor volume compared to untreated DMBA group” value was 62.5%. In addition, the Final tumor volume entry in [9] is reported as “about 0.9 mm^3”. In data set [10], this compound gave a caspase-3 positive cells of 2.3 ± 0.3 cells. In addition, the “Increase of caspase-3 positive cells from the DMBA group” value in data set [10] (mouse, in vivo) is given as 360%. Moreover, the “Share of the control's apoptotic activity (caspase-3)” value in data set [10] (mouse, in vivo) is listed as “about 51%”. Besides, the “Cell cycle distribution G2-M” value in data set [11] (DMSO control 18.18) is given as 10.32%. Moreover, the “Cell cycle distribution S” value in [11] (DMSO control 24.83) was 37.01%. Also, the “Cell cycle distribution G0-G1” value in [11] (DMSO control 56.99) is given as 52.67%. For the same compound, the “Body weight at day 20” value in data set [12] is 30.6 g. In addition, the “Body weight at start” value in [12] amounted to 20.2 g.
As for `Cc1cc(Sc2nnc(-c3ccc(Cl)cc3)o2)n2ncnc2n1` [Compound 13d, 2-(4-Chlorophenyl)-5-((5-methyl-[1,2,4]triazolo[1,5-a]pyrimidin-7-yl)thio)-1,3,4-oxadiazole], the IC50 came to 42.9 ± 2.5 µM in data set [1], 66.1 ± 3.8 µM in data set [2], 14.2 ± 1.1 µM in [3] and 24.8 ± 1.8 µM in [4].
In the case of `Cc1cc(Sc2nnc(-c3ccc(Br)cc3)o2)n2ncnc2n1` [Compound 13e, 2-(4-Bromophenyl)-5-((5-methyl-[1,2,4]triazolo[1,5-a]pyrimidin-7-yl)thio)-1,3,4-oxadiazole], the IC50 in data set [1] was 57.4 ± 3.2 µM; in data set [2] it was over 100 µM; in [3], 42.6 ± 2.4 µM; in data set [4], 55.1 ± 3.5 µM.
On to `COc1cccc2c1C(=O)c1c(O)c3c(c(O)c1C2=O)C[C@@](O)(C(=O)CO)C[C@@H]3O[C@H]1C[C@H](N)[C@H](O)[C@H](C)O1` [DOX, Doxorubicin, reference compound], for which, in [9], the “Reduction in final tumor volume compared to untreated DMBA group” value amounted to 75% and the Final tumor volume result is listed as “approximately 0.6 mm^3”. Further, in data set [10], the caspase-3 positive cells stood at 4.0 ± 0.2 cells. Moreover, in data set [10] (mouse, in vivo), the “Decrease of caspase-3 positive cells from the control” value turned out to be 11% and the “Increase of caspase-3 positive cells from the DMBA group” value worked out at 700%. Also, in data set [12], the “Body weight at day 20” value worked out at 31.8 g and the “Body weight at start” value is recorded as 19.8 g. For the same compound, in data set [6], inhibition was half-maximal at 34 µM (IC50).
